Key:
[1] = tested on: OVA-responding OT-I (CD8) cells; test: Antigen cross-presentation assay: pulsed BMDCs co-cultured with OT-I CD8 T-cells, IFN-gamma by ELISA; assay type: cell-based, mouse; settings: BMDCs pulsed 3 h with highest enhancer:OVA ratios tested; co-culture with OT-I CD8 T-cells; FIG. 1
Procedure: Mouse BMDCs were pulsed for 3 hours with antigen (OVA) alone, cholic acid (CA) alone, a cholic acid-NLS peptide conjugate (CA-SV40NLS) alone, different ratios of CA to antigen (CA:OVA=22:1, 12:1, 8:1, 4:1, and 2:1), or different ratios of an cholic acid-NLS peptide conjugate to antigen (CA-SV40NLS:OVA=22:1, 12:1, 8:1, 4:1, and 2:1). The pulsed BMDCs were then co-cultured with OT-I mouse-derived CD8 T-cells and IFN-gamma levels were quantified as a measure of cross presentation activity.
Mouse bone marrow derived dendritic cells (BMDCs) were generated by flushing the whole marrow from mouse femurs using RPMI™ 1640 supplemented with 10% fetal bovine serum (FBS), 50 U/mL Penicillin-Streptomycin, 2 mM L-glutamine, 10 mM HEPES, 1% MEM Non-essential Amino Acids, 1 mM Sodium Pyruvate, 0.5 mM beta-mercaptoethanol. […] Mature DCs were assessed by flow cytometry for their surface expression of CD3, CD19, NK1.1, CD11c, CD80, CD86, and I-Ab.
To evaluate antigen cross-presentation, cells were seeded at 25×10^3 cells per well in 24-well plates (Corning; Massachusetts, United States), then pulsed with antigens or antigen-containing mixtures at different concentrations for 3 h. […] After 72 hours, supernatants were collected and used to quantify cytokine production by commercial enzyme-linked immunosorbent assays (ELISAs). […]

B3Z cells = test: Antigen-presentation assay using the B3Z reporter system, BMDCs as antigen presenting cells; assay type: cell-based, mouse; settings: BMDCs; molar ratio (bile acid/peptide/conjugate):antigen 4:1; mixed with OVA; FIG. 2
Text: For this experiment, BMDCs were used as the antigen presenting cells (n=6) and the molar ratio (bile acid/peptide/conjugate): antigen was 4:1. Controls tested included no antigen (“PBS”), antigen alone (“OVA alone”), unconjugated NLS peptide (“SV40NLS”), unconjugated cholic acid mixed with OVA (“CA”), and the positive control peptide SIINFEKL (SEQ ID NO: 9) mixed with OVA (“SIINFEKL”). The dashed line represents the signal obtained with OVA alone. Bile acids: cholic acid (CA); glycodeoxycholic acid (GDCA); glycochenodeoxycholic acid (GCDCA); ursodeoxycholic acid (UDCA); and lithocholic acid (LCA).
The dashed line represents the signal obtained with OVA alone. The readout was taken after 24 h of incubation and error bars represent SD (n=6). For this experiment, BMDCs were used as the antigen presenting cells.
The dashed line represents the signal obtained with OVA alone. Readout was taken after 24 h of incubation from a single experiment. The molar ratio of CA-peptide conjugate: OVA was 22:1. For this experiment, BMDCs were used as the antigen presenting cells.
For this experiment, BMDCs were used as the antigen presenting cells. The dashed line represents the signal obtained with OVA alone. Readout was taken after 24 h of incubation from a single experiment. The molar ratio of CA-peptide conjugate: OVA was as follows: CA-GWG-SV40NLS (12:1); CA-hnRNP M NLS (12:1); CA-NLS2-RPS17 NLS (22:1); CA-HuR NLS (22:1); CA-cMyc NLS (2:1); CA-NLS3-RPS17 NLS (22:1); CA-NLS2-RG-RPS17 NLS (2:1); CA-PQBP1 NLS (8:1); CA-hnRNPA1 M9 NLS (22:1); and CA-SV40 NLS (2:1).
Various bile acid-NLS conjugates were screened using the B3Z reporter system. The B3Z cell line is a T-cell hybridoma specific for the H2-K^b-SIINFEKL complex. Once activated via its TCR, the LacZ reporter gene (under the NFAT promoter control) is expressed. Briefly, 1.5×10^5 BMDCs or 2.5×10^5 MSCs were co-cultured with 5×10^4 B3Z cells treated with the mixing conditions of ovalbumin (OVA) and bile acid-NLS conjugates for overnight at 37° C. with 5% CO2. The following day, all cells were washed twice with PBS (pH 7.4), and the cell pellets were lysed by adding 100 μL of a lysis buffer containing 0.15 mM chlorophenol red-beta-D-galactopyranoside (CPRG) substrate (Calbiochem, La Jolla, Calif.), 0.125% NP40 (EMD Sciences, La Jolla, Calif.), 9 mM MgCl2 (Aldrich, USA) and 100 mM 2-mercaptoethanol in PBS. After a 5- or 24-h incubation at 37° C., absorbance was taken at 570 nm with 636 nm as the reference wavelength. For these experiments, OVA was re-suspended in PBS (pH 7.3) at 5-10 mg/mL. The different bile acid-NLS conjugates were re-suspended in H2O at 10 mg/mL. Bile acid-NLS conjugate: antigen mixtures were prepared at different molar ratios according to Table 2.
Variants of CA-SV40NLS were synthesized in order to explore structure-activity relationships relating to the antigen cross-presentation enhancing activity observed for this conjugate. More particularly, conjugates having different bile acids conjugated to the SV40NLS peptide (SEQ ID NO: 1) were synthesized and their effect on antigen presentation was evaluated by using the B3Z reporter system with the OVA antigen as described in Example 1. […] In FIG. 2, no increase in antigen cross-presentation over the antigen alone (“OVA”) was observed when OVA was mixed with either unconjugated cholic acid (“CA”) or SV40NLS peptide (“SV40NLS”), although lower sensitivity of the B3Z reporter system as compared to the OT-I CD8 T cell-based assay used in FIG. 1 may have been a factor.
Further variants of CA-SV40NLS were synthesized in which the SV40NLS peptide was replaced with peptides comprising other NLS's (Table 3) and the antigen presentation activities of the CA-NLS peptide conjugates were evaluated using the B3Z reporter system as described in Example 1. The following conjugate:antigen molar ratios were tested for each conjugate: 2:1, 4:1, 8:1, 12:1 and 22:1. […]

GII.3 human norovirus = settings: host intestinal cells; free bile acids; cited from earlier work

C[C@H](CCC(=O)O)[C@H]1CC[C@H]2[C@@H]3[C@H](O)C[C@@H]4C[C@H](O)CC[C@]4(C)[C@H]3C[C@H](O)[C@]12C [CA, cholic acid]
increase in the amount of IFN-gamma produced, as compared to BMDCs pre-pulsed with the OVA antigen alone [1]: up to 3 fold | antigen cross-presentation (B3Z response) compared with OVA alone (B3Z cells): no increase | effect on GII.3 human norovirus infection and replication (GII.3 human norovirus): increase GII.3 human norovirus infection and replication
